Key:
[1] = test system: pre-diabetic hyperglycemic patients and patients having type 2 diabetes; experiment: Biomarkers in 28-day clinical trial (serum CRP, adipokines; cytokines from LPS stimulated PBMC by ELISA); type: in vivo, human
Method: Groups of pre-diabetic hyperglycemic patients and patients having type 2 diabetes were treated for 28 days with the experimental drug 17α-ethynylandrost-5-ene-3β,7β,17β-triol (oral capsules) or with placebo. Dosages for the pre diabetic patients were 0 mg per day (placebo control; n=10), 5 mg once per day (n=9; cohort 1), 5 mg twice per day (n=8; cohort 2) or 10 mg twice per day (n=7; cohort 3). Placebos were obtained with each treatment cohort based on protocol randomization of 2 treated:1 placebo. The pre-diabetic patients were obese (body mass index ≧29 kg/m^2) and glucose intolerant (fasting plasma glucose <126 mg/dL; 2-hr post prandial glucose 140-200 mg/dL after 75 g oral glucose). The diabetic patients were dosed with 10 mg/day for 28 days (n=6; cohort 6). The glucose clamp protocol was performed on groups of patients dosed with 10 mg/day or 20 mg/day of drug at baseline, one day before drug treatment started (day −1), and one day after the last day of dosing with the drug (day 29). Patients with an M value of <5 mg glucose/kg/min (M<5) were considered insulin resistant and patients with an M value of >5 mg glucose/kg/min (M>5) were considered insulin sensitive or essentially normal for whole body glucose metabolism.
Levels of cytokine biomarkers from patients with M values measured by glucose clamp such as MCP1, TNFα, IL-6 and IL-1β were measured by ELISA as the amount of cytokine secreted from LPS stimulated peripheral blood mononuclear cells from the patients at baseline (day −1) and at 1 day after the last day of drug dosing (day 29). Levels of RBP4 and CRP protein were measured from patient serum.
The analysis of responders used standard analysis. Due to the cohort sizes and the ongoing basis of this clinical protocol, data for surrogates that corresponded to significance at p≦0.10 (trend) were considered positive evidence of surrogacy of the biomarker for the M<5 insulin resistant condition.

[2] = Blood levels after oral immediate release formulations; type: in vivo, human; conditions: for serum levels remained at or above: entire day
Method: Blood levels of 17α-ethynylandrost-5-ene-3β,7β,17β-triol were determined in adult patients dosed with a range of dosages as oral immediate release formulations. The formulations were essentially as described in example 3, with capsules containing 1 mg/capsule, 5 mg/capsule, 10 mg/capsule, 25 mg/capsule or 50 mg/capsule. These unit doses were filled into hard gelatin capsules (size #1 for […] doses; size #2 for the 1 and 5 mg doses) and micronized compound (D90˜[…]) was used.
Two capsules containing 1 mg of 17α-ethynylandrost-5-ene-3β,7β,17β-triol were administered twice per day to patients receiving a 4 mg/day total dose. […] Blood levels of the compound were at or above about 0.5 ng/mL for over 2 hours/day. […] In other patients receiving 4 mg/day for 28 days, there was a lower degree of response than patients receiving higher doses and 4 mg/day was considered to be the minimal effective dose.
Analysis of some of the evaluable patients from example 1 gave the following results. […] Drug exposure over 24 hours (AUC0-24) in patients receiving 10 mg/day (5 mg twice per day) ranged from 15.7 ng·hr/mL to 190 ng·hr/mL and from 72 ng·hr/mL to 198 ng·hr/mL in patients receiving 20 mg/day (10 mg twice per day). Drug exposure in patients receiving 40 mg/day (20 mg twice per day) ranged from 60 ng·hr/mL to 209 ng·hr/mL.

[3] = cohort 2, 3 and 6 M<5 patients vs M>5 patients, p<0.03
[4] = 2 mg twice per day (4 mg/day), n=2

## C#C[C@]1(O)CC[C@H]2[C@@H]3[C@@H](O)C=C4C[C@@H](O)CC[C@]4(C)[C@H]3CC[C@@]21C [17α-ethynylandrost-5-ene-3β,7β,17β-triol]
[1]; M<5 drug treated patients
  adiponectin: not affected
[1]; M<5 drug treated subjects
  Resistin: increased much less
[1]; M<5 patients compared to M>5 patients, p=0.094 exact Mann-Whitney
  decrease in CRP: significant
[1]; all drug treated cohorts (decreased in placebo patients)
  Leptin: increased
[1]; [3]
  IL-1β (LPS stimulated PBMC): highly significant decrease
  IL-6 (LPS stimulated PBMC): highly significant decrease
  MCP1 (LPS stimulated PBMC): highly significant decrease
  TNFα (LPS stimulated PBMC): highly significant decrease
[1]; cohort 6 (diabetic patients, 10 mg/day), p=0.002
  Leptin: significantly increased
[1]; day 29, drug treated M<5 vs drug treated M>5 patients, p=0.075
  TNFα (LPS stimulated PBMC): greater decrease
[1]; day 29, drug treated M<5 vs drug treated M>5 patients, p=0.093
  MCP1 (LPS stimulated PBMC): greater decrease
[1]; drug treated subjects vs placebo control patients
  Resistin: increased less
[1]; insulin resistant subjects (M<5) compared to placebo-treated subjects, p=0.018 exact Mann-Whitney
  CRP: significantly decreased
[2]; 2 mg twice per day
  time with blood levels at or above about 0.5 ng/mL: over 2 hours/day
[2]; [4]
  peak blood levels: 1 to 2 ng/mL
  time of peak blood levels after dosing: 2 to 3 h
[2]; 2 mg twice per day, for over 2 hours/day
  blood levels maintained: ≥ 0.5 ng/mL
[2]; 10 mg twice per day (20 mg/day on a single day), n=2
  peak serum levels: 10 to 30 ng/mL
[2]; 10 mg twice per day
  serum levels remained at or above: ≥ 3 ng/mL
[2]; 25 mg twice per day
  serum levels remained at or above: ≥ 3 ng/mL
[2]; 50 mg twice per day (100 mg/day), n=2
  peak serum levels: 80 to 150 ng/mL
[2]; 50 mg twice per day (100 mg/day)
  serum levels remained at or above: ≥ 10 ng/mL
[2]; 100 mg/day dose level
  induction of cytochromes (liver enzymes): not observed
[2]; fasted vs fed status
  fasted Cmax lower compared to patients dosed after a meal: up to 60%
[2]; females (n=3), 20 mg/day (10 mg twice per day)
  mean Cmax: 13.8 ng/mL
[2]; in vivo
  Cmax levels in females vs males: sometimes higher
  total drug exposure levels, adult females vs adult males: somewhat higher
[2]; males (n=4), 20 mg/day (10 mg twice per day)
  mean Cmax: 15.1 ng/mL
[2]; pre-diabetic hyperglycemic females (n=6), 10 mg per day (5 mg twice per day)
  mean Cmax: 11.2 ng/mL
[2]; pre-diabetic hyperglycemic males (n=2), 10 mg per day (5 mg twice per day)
  mean Cmax: 3.8 ng/mL
[2]; rheumatoid arthritis patients, females (n=6), 40 mg/day (20 mg twice per day)
  mean Cmax: 27.4 ng/mL
[2]; rheumatoid arthritis patients, males (n=2), 40 mg/day (20 mg twice per day)
  mean Cmax: 43.7 ng/mL
